Data published in patent US7163919B2, “Anticancer composition” (priority 2002, dated 2007).

Assay: MTT cellular viability assay, 293
Type: cell-based
Conditions: human, 293 cells (human kidney epithelial cell line, ATCC CRL-1573), Example 7, FIG. 5, normal cell line 293

SMILES: CC(=O)O[C@H]1C(=O)[C@@]2(C)[C@H]([C@H](OC(=O)c3ccccc3)[C@]3(O)C[C@H](OC(=O)[C@H](O)[C@@H](NC(=O)c4ccccc4)c4ccccc4)C(C)=C1C3(C)C)[C@]1(OC(C)=O)CO[C@@H]1C[C@@H]2O [TAXOL]
- viability at 24 h: 20 to 25%
